From patent US20210369684A1 (MOUNT TAM THERAPEUTICS, INC., priority 2018, published 2021)

How the values were obtained:
6-OHDA injected mice [1] = assay: Anti-TH immunohistochemistry, 6-OHDA-induced neuronal loss (TH-positive somas in SN); format: in vivo, mouse; conditions: one-way ANOVA, FIG. 4B
Description: Immunohistochemistry analysis using anti-tyrosine hydroxylase (TH) antibody was also performed to quantify 6-OHDA-induced neuronal loss in mice injected with 6-OHDA and non-injected (control) sides of the brain. […] FIG. 4B presents the mean and standard error of the mean (SEM) as well as statistical analysis of the results.

6-OHDA injected mice [2] = assay: Anti-TH immunohistochemistry, 6-OHDA-induced striatal denervation; format: in vivo, mouse; conditions: one-way ANOVA, FIG. 3B
Description: Immunohistochemistry analysis using anti-tyrosine hydroxylase (TH) antibody was performed in mouse midbrain sections to quantify 6-OHDA-induced striatal denervation in mice injected with 6-OHDA and non-injected (control) sides of the brain. […] In contrast, both the 6-OHDA/rapamycin-treated and the 6-OHDA/Formula II-treated sides of the brain show increased staining with the anti-TH antibody, as indicated by the dark shading in those figures. FIG. 3B presents the mean and standard error of the mean (SEM) of the integrated density of anti-TH antibody staining in the striatum, as well as statistical analysis of the results for the groups of mice.

CO[C@H]1C[C@@H]2CC[C@@H](C)[C@@](O)(O2)C(=O)C(=O)N2CCCC[C@H]2C(=O)O[C@H]([C@H](C)C[C@@H]2CC[C@@H](O)[C@H](OC)C2)CC(=O)[C@H](C)/C=C(\C)[C@@H](O)[C@@H](OC)C(=O)[C@H](C)C[C@H](C)/C=C/C=C/C=C/1C [rapamycin, Rapamycin, reference compound]
TH+ neuronal loss, p versus vehicle control (6-OHDA injected mice [1]): < 0.001
integrated density of anti-TH staining in striatum, p versus vehicle control (6-OHDA injected mice [2]): < 0.05
